Measured values published in patent US9433621B2, “Substituted pyridine and pyrimidine derivatives and their use in treating viral infections” (Merck Sharp & Dohme Corp., priority 2010, dated 2016).

The molecules below were run on HCV replicon (assay: Cell-Based HCV Replicon Assay). Conditions: Hepatitis C virus, 72 h; Table IV; replicon cells, day 3, real time PCR; EC90 = concentration for ΔCT=3.2 over baseline; read-out: EC90.
How it was run: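 Replicon cells, 5000/well, treated 3 days with 10 serial 2-fold dilutions (top 25 μM to 1 μM) in 0.5% DMSO, 10% FBS. Replicon RNA measured by multiplex Taqman RT-PCR (NS5B amplicon, GAPDH control); EC50/EC90 = concentration giving ΔCT of 1/3.2 over baseline from sigmoid fit.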

Row | Structure (SMILES) | EC90 [µM]
1 | CCNC(=O)C(O)[C@H]1C[C@@H](Nc2nc(N[C@H](C)COCC)nc(C)c2-c2nc3c(C)nccc3s2)[C@H](O)[C@@H]1O (stereo partly shown) [Example 4025] | 0.008
2 | Cc1nc(NC[C@H]2C[C@H](c3ccccc3)C2)nc(N[C@@H]2C[C@H](CO)[C@@H](O)[C@H]2O)c1-c1nc2cnccc2s1 [Example 4513] | 0.016
3 | CCc1cc2sc(-c3c(C)nc(NCC(F)(F)F)nc3N[C@@H]3C[C@H](CO)[C@@H](O)[C@H]3O)nc2c(CC)n1 [Example 4706] | 0.045
4 | Cc1nc(NCC2CC2)nc(N[C@@H]2C[C@H](C(F)F)[C@@H](O)[C@H]2O)c1-c1nc2c(C)nccc2s1 [Example 3036] | 0.044
5 | CCOc1cc2cc(-c3c(C)nc(NCC4CC4)nc3N[C@@H]3C[C@H](C(C)(C)O)[C@@H](O)[C@H]3O)oc2c(C)n1 [Example 2511] | 0.13
6 | Cc1nc(NCc2c(F)cccc2F)nc(N[C@@H]2C[C@H](CS(=O)(=O)c3cc(F)cc(F)c3)[C@@H](O)[C@H]2O)c1-c1nc2c(C)nccc2s1 [Example 3754] | 0.015

Same assay, conditions: Hepatitis C virus, 72 h; Table V, class codes; replicon cells, day 3, real time PCR; EC90 = concentration for ΔCT=3.2 over baseline; read-out: EC90 (uM) range

Row | Structure (SMILES) | EC90 [µM]
7 | Cc1nc(NCC2CC2)nc(N[C@@H]2C[C@H](C(=O)NC(C)(C)C)[C@@H](O)[C@H]2O)c1-c1nc2c(C3CC3)nccc2s1 [Example 4931] | < 0.5
8 | Cc1nc(N)nc(N[C@@H]2C[C@H](C(=O)N3CCOCC3)[C@@H](O)[C@H]2O)c1-c1nc2c(C3CC3)nccc2s1 [Example 4925] | < 0.5
9 | Cc1cc2sc(-c3c(C)nc(NCc4c(F)cccc4F)nc3N[C@@H]3C[C@H](CO)[C@@H](O)[C@H]3O)nc2cn1 [Example 4908] | < 0.5
10 | COCCNc1nc(C)c(-c2nc3c(C)nccc3s2)c(N[C@@H]2C[C@H](C(C)(C)F)[C@@H](O)[C@H]2O)n1 [Example 4954] | < 0.5

Same assay, conditions: Hepatitis C virus; HCV Replicon assay, EC90 range, Table VI; read-out: EC90

Row | Structure (SMILES) | EC90 [µM]
11 | Cc1nc(N[C@H](C)CSC(C)(C)C)nc(N[C@@H]2C[C@H](C(C)(C)O)[C@@H](O)[C@H]2O)c1-c1nc2c(C)nccc2s1 [Example 5254] | < 0.5
12 | Cc1nc(NC(C)(C)C)nc(N[C@@H]2C[C@H](NC(=O)N(C)C)[C@@H](O)[C@H]2O)c1-c1nc2c(C3CC3)nccc2s1 [Example 5097] | < 0.5
13 | Cc1nc(N[C@H](C)C2CC2)nc(N[C@@H]2C[C@H](NC(=O)N(C)C)[C@@H](O)[C@H]2O)c1-c1nc2c(C3CC3)nccc2s1 [Example 5096] | < 0.5
14 | Cc1nc(NC2(C3CCCC3)CC2)nc(N[C@@H]2C[C@H]([C@H](O)C(C)C)[C@@H](O)[C@H]2O)c1-c1nc2c(C)nccc2s1 [Example 5108] | < 0.5
15 | C#CCCNc1nc(C)c(-c2nc3c(C4CC4)nccc3s2)c(N[C@@H]2C[C@H](CS(C)(=O)=O)[C@@H](O)[C@H]2O)n1 [Example 5015] | < 0.5
16 | COC(=O)NC(C)(C)[C@H]1C[C@@H](Nc2nc(NCC(C)(C)C)nc(C)c2-c2nc3c(C)nccc3s2)[C@H](O)[C@@H]1O [Example 5047] | < 0.5
17 | Cc1nc(NCC(F)(F)C(F)(F)F)nc(NC2(CO)CCCC2)c1-c1nc2c(C3CC3)nccc2s1 [Example 5129] | < 0.5
18 | CCc1nccc2sc(-c3c(C)nc(NCC(C)(C)C)nc3N[C@@H]3C[C@H](CS(=O)(=O)c4ccc(F)c(C)c4)[C@@H](O)[C@H]3O)nc12 [Example 5018] | < 0.5
19 | CCNC(=O)N[C@H]1C[C@@H](Nc2nc(NCC3CC3)nc(C)c2-c2nc3c(C4CC4)nccc3s2)[C@H](O)[C@@H]1O [Example 5087] | < 0.5
20 | Cc1nc(NCC(F)(F)F)nc(NC2(CO)CCCC2)c1-c1nc2c(C)nccc2s1 [Example 5116] | < 0.5
21 | CO[C@@]1(CNc2nc(C)c(-c3nc4c(C)nccc4s3)c(N[C@@H]3C[C@H](C4(O)CCCC4)[C@@H](O)[C@H]3O)n2)CCOC1 [Example 5103] | < 0.5
22 | COc1ccc(S(=O)(=O)C[C@H]2C[C@@H](Nc3nc(NCC4CC4)nc(C)c3-c3nc4c(C)nccc4s3)[C@H](O)[C@@H]2O)cc1F [Example 5013] | < 0.5
23 | Cc1nc(NCC(F)(F)C(F)(F)F)nc(N[C@H]2CC[C@@H](CO)C2)c1-c1nc2c(C)nccc2s1 [Example 5168] | < 0.5
24 | Cc1nc(N)nc(N[C@@H]2C[C@H](C(C)(C)O)[C@@H](O)[C@H]2O)c1-c1nc2c(C)nccc2s1 [Example 5242] | < 0.5
25 | Cc1nc(NCCC2CC2)nc(N[C@@H]2C[C@H](C(F)F)[C@@H](O)[C@H]2O)c1-c1nc2c(C3CC3)nccc2s1 [Example 5192] | < 0.5
26 | Cc1nc(NCc2c(F)cc(F)cc2F)nc(N[C@@H]2C[C@H](C3(O)CC3)[C@@H](O)[C@H]2O)c1-c1nc2c(C)nccc2s1 [Example 5236] | < 0.5
27 | CO[C@@H](CNc1nc(C)c(-c2nc3c(C4CC4)nccc3s2)c(N[C@@H]2C[C@H](CO)[C@@H](O)[C@H]2O)n1)C(F)(F)F [Example 5231] | < 0.5

Row | Structure (SMILES) | EC90 [µM]
28 | CSCCNc1nc(C)c(-c2nc3c(C4CC4)nccc3s2)c(N[C@@H]2C[C@H](C(F)F)[C@@H](O)[C@H]2O)n1 [Example 5194] | < 0.5
29 | Cc1nc(NC2CC2)nc(N[C@@H]2C[C@H](C(F)F)[C@@H](O)[C@H]2O)c1-c1nc2c(C3CC3)nccc2s1 [Example 5178] | < 0.5
30 | Cc1nc(NCCSC(C)(C)C)nc(N[C@@H]2C[C@H](CS(C)(=O)=O)[C@@H](O)[C@H]2O)c1-c1nc2c(C3CC3)nccc2s1 [Example 5007] | < 0.5
31 | Cc1nc(NCC2CC2)nc(N[C@@H]2C[C@H](NC(=O)Nc3ccccc3)[C@@H](O)[C@H]2O)c1-c1nc2c(C3CC3)nccc2s1 [Example 5092] | < 0.5
32 | Cc1nc(N)nc(N[C@H]2C=C[C@@H](CO)C2)c1-c1nc2c(C)nccc2s1 [Example 5167] | < 0.5
33 | CCS(=O)(=O)C(C)(C)[C@H]1C[C@@H](Nc2nc(NCc3c(F)cc(F)cc3F)nc(C)c2-c2nc3c(C4CC4)nccc3s2)[C@H](O)[C@@H]1O [Example 5061] | < 0.5
34 | Cc1nc(NCC(C)C)nc(N[C@@H]2C[C@H](C(C)(F)F)[C@@H](O)[C@H]2O)c1-c1nc2c(C3CC3)nccc2s1 [Example 5175] | < 0.5
35 | Cc1nc(NCC2CC2)nc(N[C@@H]2C[C@H](C(C)(C)N=[N+]=[N-])[C@@H](O)[C@H]2O)c1-c1nc2c(C3CC3)nccc2s1 [Example 5051] | < 0.5
36 | CCC(CNc1nc(C)c(-c2nc3c(C)nccc3s2)c(N[C@@H]2C[C@H](C(C)(C)O)[C@@H](O)[C@H]2O)n1)OC (stereo partly shown) [Example 5196] | < 0.5
37 | CO[C@@H]1[C@H](OC)[C@@H](C(C)(C)O)C[C@H]1Nc1nc(NCc2c(F)cc(F)cc2F)nc(C)c1-c1nc2c(C)nccc2s1 [Example 5266] | < 0.5
38 | Cc1nc(NCC(F)(F)F)nc(N[C@H]2CCC[C@@H]2O)c1-c1nc2c(C)nccc2s1 [Example 5154] | < 0.5
39 | Cc1nc(NCCC(C)C)nc(N[C@@H]2C[C@H](C(F)F)[C@@H](O)[C@H]2O)c1-c1nc2c(C3CC3)nccc2s1 [Example 5193] | < 0.5
40 | CCO[C@@H](CNc1nc(C)c(-c2nc3c(C4CC4)nccc3s2)c(N[C@@H]2C[C@H](CO)[C@@H](O)[C@H]2O)n1)C(F)(F)F [Example 5234] | < 0.5
41 | C#CCCNc1nc(C)c(-c2nc3c(C)nccc3s2)c(N[C@@H]2C[C@H](C(C)(C)O)[C@@H](O)[C@H]2O)n1 [Example 5260] | < 0.5
42 | CCSCCNc1nc(C)c(-c2nc3c(C)nccc3s2)c(N[C@@H]2C[C@H](C(C)(C)OC)[C@@H](O)[C@H]2O)n1 [Example 5278] | < 0.5
43 | Cc1nc(NCCS(=O)(=O)N(C)C)nc(N[C@@H]2C[C@H](C(C)(C)O)[C@@H](O)[C@H]2O)c1-c1nc2c(C)nccc2s1 [Example 5288] | < 0.5
